Columns and labels:
[1] = Stability studies (light, humidity, heat), overall comparison; details: summary of high-temperature, high humidity and intense light tests
Protocol: (§1) The test samples were open-stored in culture dishes at 60° C. for 10 days, and taken and detected on Day 5 and Day 10. • The characteristics, especially colour change were observed. • Melting points were measured by automatic melting point apparatus. • By self-reflection, TLC is used to observe whether the spot numbers were increased after 5 days and 10 days.
(§2) The test samples were open-stored in closed constant humidity desiccators under the condition of 25° C. and relative humidity of 90%+5% for 10 days, and taken and detected on Day 5 and Day 10. Meanwhile, each sample was accurately weighed before and after test.
(§3) The test samples were open-stored in “adjustable light boxes” under the conditions of illumination of 4500LX±500LX for 10 days, and taken and detected on Day 5 and Day 10 with regards to dry items. • The characteristics, especially colour change was observed. • Melting points were measured by an automatic melting point apparatus. • By self-reflection, TLC is used to observe whether the spot numbers were increased after 5 days and 10 days.

[2] = system: ethanol-induced gastric ulcer; assay: Anhydrous ethanol-induced gastric ulcer in mice; assay type: in vivo, Kunming mice; design: key to Gastri ulcer score (X ± SD) / Ulcer score (X ± SD) / Gastric ulcer score (X ± SD): summed pathology score: congestion 1, hemorrhage/erosion 1, linear erosion 3
Protocol: Kunming mice, half male and half female, weighing 18-22 g, provided by the West China Animal Center
(1) Azulene sodium sulphonate was added with 0.5% CMC to prepare a suspension with concentration of 0.15 mg/ml.
(2) 20 mg of Omeprazole was added with 0.5% CMC to prepare a suspension with concentration of 0.67 mg/ml.
Kunming mice were randomly grouped according the body weight (one model control group or negative control group, one Omeprazole control group or positive control group, one Azulene sodium sulphonate control group, twelve test drug groups), eight mice for each group, half male and half female.
Administration: Model control group was administrated intragastrically with 0.5% CMC solution at a dose of 0.4 ml/20 g; Omeprazole control group was administrated intragastrically with Omeprazole at a dose of 0.4 ml/20 g, Azulene sodium sulphonate control group and each test drug groups were administrated intragastrically with their respective drug at a dose of 0.4 ml/20 g. The mice in each group were administrated once a day for successive five days. 0.5 hour after final administration, the mice in each group were administrated intragastrically with 0.5 ml of anhydrous ethanol, one hour later the mice were executed and dissected, and their stomaches were taken, washed and scored according to the pathological degree. For local congestion and rubefaction, score was 1; for petechial hemorrhage or erosion, score was respectively 1, for each linear erosion, score was 3. Statistical analysis was performed. Ulcer scores were calculated, significant differences between the groups were compared and the inhibition rates of ulcer were calculated [Inhibition rate of ulcer=(ulcer score of model group−ulcer score of drug administration group)/ulcer score of model group].

[3] = High humidity test (25° C., relative humidity 90% ± 5%), stability study; assay type: physicochemical; details: RH 90% ± 5%; for Appearance Day 0: Day 0, cell wraps; for Appearance Day 0 / Appearance Day 5 / Appearance Day 10: first line given; for Appearance Day 5: Day 5, cell wraps; for Appearance Day 10: Day 10, cell wraps;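 on all read-outs here: samples kept uncovered in sealed humidity desiccators, appearance judged mainly by colour change, melting point on an automatic apparatus, TLC checked for extra spots versus start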
Protocol: as §2
The characteristics, especially colour change was observed.
Melting points were measured by an automatic melting point apparatus.
By self-reflection, TLC is used to observe whether the spot numbers were increased after 5 days and 10 days.

[4] = Intense light irradiation test (4500LX ± 500LX), stability study; assay type: physicochemical; details: for Appearance Day 0: Day 0, cell wraps; for Appearance Day 0 / Appearance Day 5 / Appearance Day 10: first line given; for Appearance Day 5: Day 5, cell wraps; for Appearance Day 10: Day 10, cell wraps
Protocol: as §3

[5] = High-temperature test (60° C.), stability study; assay type: physicochemical; details: open-stored; for Appearance Day 5: Day 5, cell wraps; for Appearance Day 5 / Appearance Day 10: first line given; for Appearance Day 10: Day 10, cell wraps;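 on all read-outs here: samples kept uncovered in dishes at 60 °C for up to 10 days and examined on Day 5 and Day 10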
Protocol: as §1

## Cc1cc(S(=O)(=O)Nc2cccc(Br)c2)c2c(C)ccc(C(C)C)cc1-2 [4a, N-(3-bromophenyl)-3,8-dimethyl-5-isopropyl-1-azulene sulfonamide]
[1]
  light, humidity and heat stability in words: better light, humidity and heat stability than azulene sulfonate sodium
[2]; Table 4, inhibition rate of ulcer vs model group
  Inhibition rate (%): 51.31%
[2]; Table 4, mice, intragastric once a day for five days, dose equimolar to azulene sulfonate sodium 3.0 mg/kg (Omeprazole 13.4 mg/kg), model group 13.00 ± 1.77
  Gastri ulcer score (X ± SD): 6.33 ± 4.50
[2]; ethanol-induced gastric ulcer in mice, compared to the model group
  anti-gastric ulcer effect in words: significantly relieve the pathological degree
other
  melting point: 172 to 174 °C
[3]
  Melting point Day 0: 172.5-174.0 °C
  Spot numbers on TLC Day 0: 1
  hygroscopic rate (%) Day 0: 1.01%
  Appearance Day 0: purple
  Melting point Day 5: 172.0-174.5 °C
  Spot numbers on TLC Day 5: 1
  hygroscopic rate (%) Day 5: 1.46%
  Appearance Day 5: purple
  Melting point Day 10: 172.0-174.5 °C
  Spot numbers on TLC Day 10: 1
  Appearance Day 10: purple
[4]
  Melting point Day 0: 172.5-174.0 °C
  Spot numbers on TLC Day 0: 1
  Appearance Day 0: purple
  Melting point Day 5: 172.0-175.0 °C
  Spot numbers on TLC Day 5: 1
  Appearance Day 5: purple
  Melting point Day 10: 173.0-174.0 °C
  Spot numbers on TLC Day 10: 1
  Appearance Day 10: purple
[5]
  Melting point Day 0: 172.5-174.0 °C
  Spot numbers on TLC Day 0: 1
  Melting point Day 5: 172.0-173.5 °C
  Spot numbers on TLC Day 5: 1
  Appearance Day 5: purple
  Melting point Day 10: 172.5-174.0 °C
  Spot numbers on TLC Day 10: 1
  Appearance Day 10: purple

## CCCNS(=O)(=O)c1cc(C)c2cc(C(C)C)ccc(C)c1-2 [4f, N-propyl-3,8-dimethyl-5-isopropyl-1-azulene sulfonamide]
[1]
  light, humidity and heat stability in words: better light, humidity and heat stability than azulene sulfonate sodium
other
  melting point: 60 to 62 °C
[3]
  Melting point Day 0: 59.5-62.5 °C
  Spot numbers on TLC Day 0: 1
  hygroscopic rate (%) Day 0: 1.13%
  Appearance Day 0: purple
  Melting point Day 5: 59.5-63.0 °C
  Spot numbers on TLC Day 5: 1
  hygroscopic rate (%) Day 5: 1.28%
  Appearance Day 5: purple
  Melting point Day 10: 59.5-63.0 °C
  Spot numbers on TLC Day 10: 1
  Appearance Day 10: purple
[4]
  Melting point Day 0: 59.5-62.5 °C
  Spot numbers on TLC Day 0: 1
  Appearance Day 0: purple
  Melting point Day 5: 58.5-62.0 °C
  Spot numbers on TLC Day 5: 1
  Appearance Day 5: purple
  Melting point Day 10: 57.5-61.5 °C
  Spot numbers on TLC Day 10: 2
  Appearance Day 10: purple
[5]
  Melting point Day 0: 59.5-62.5 °C
  Spot numbers on TLC Day 0: 1
  Melting point Day 5: 60.0-62.0 °C
  Spot numbers on TLC Day 5: 1
  Appearance Day 5: purple
  Melting point Day 10: 60.0-62.0 °C
  Spot numbers on TLC Day 10: 1
  Appearance Day 10: purple

## Cc1ccc(NS(=O)(=O)c2cc(C)c3cc(C(C)C)ccc(C)c2-3)cc1 [4g, N-(4-methylphenyl)-3,8-dimethyl-5-isopropyl-1-azulene sulfonamide]
[1]
  light, humidity and heat stability in words: better light, humidity and heat stability than azulene sulfonate sodium
other
  melting point: 146 to 148 °C
[3]
  Melting point Day 0: 146.0-148.5 °C
  Spot numbers on TLC Day 0: 1
  hygroscopic rate (%) Day 0: 1.56%
  Appearance Day 0: purple
  Melting point Day 5: 145.5-148.5 °C
  Spot numbers on TLC Day 5: 1
  hygroscopic rate (%) Day 5: 2.01%
  Appearance Day 5: purple
  Melting point Day 10: 145.5-148.5 °C
  Spot numbers on TLC Day 10: 1
  Appearance Day 10: purple
[4]
  Melting point Day 0: 146.0-148.5 °C
  Spot numbers on TLC Day 0: 1
  Appearance Day 0: purple
  Melting point Day 5: 145.0-147.5 °C
  Spot numbers on TLC Day 5: 1
  Appearance Day 5: purple
  Melting point Day 10: 143.5-147.5 °C
  Spot numbers on TLC Day 10: 2
  Appearance Day 10: purple
[5]
  Melting point Day 0: 146.0-148.5 °C
  Spot numbers on TLC Day 0: 1
  Melting point Day 5: 146.0-148.0 °C
  Spot numbers on TLC Day 5: 1
  Appearance Day 5: purple
  Melting point Day 10: 145.5-147.5 °C
  Spot numbers on TLC Day 10: 1
  Appearance Day 10: purple

## CCNS(=O)(=O)c1cc(C)c2cc(C(C)C)ccc(C)c1-2 [4h, N-ethyl-3,8-dimethyl-5-isopropyl-1-azulene sulfonamide]
[1]
  light, humidity and heat stability in words: better light, humidity and heat stability than azulene sulfonate sodium
other
  melting point: 96 to 98 °C
[3]
  Melting point Day 0: 123.5-125.5 °C
  Spot numbers on TLC Day 0: 1
  hygroscopic rate (%) Day 0: 1.14%
  Appearance Day 0: blue
  Melting point Day 5: 123.5-125.5 °C
  Spot numbers on TLC Day 5: 1
  hygroscopic rate (%) Day 5: 2.11%
  Appearance Day 5: blue
  Melting point Day 10: 123.5-125.5 °C
  Spot numbers on TLC Day 10: 1
  Appearance Day 10: blue
[4]
  Melting point Day 0: 123.5-125.5 °C
  Spot numbers on TLC Day 0: 1
  Appearance Day 0: blue
  Melting point Day 5: 122.0-125.5 °C
  Spot numbers on TLC Day 5: 1
  Appearance Day 5: blue
  Melting point Day 10: 121.0-126.0 °C
  Spot numbers on TLC Day 10: 2
  Appearance Day 10: blue
[5]
  Melting point Day 0: 123.5-125.5 °C
  Spot numbers on TLC Day 0: 1
  Melting point Day 5: 123.5-125.5 °C
  Spot numbers on TLC Day 5: 1
  Appearance Day 5: blue
  Melting point Day 10: 124.5-125.0 °C
  Spot numbers on TLC Day 10: 1
  Appearance Day 10: blue

## Cc1cc(S(=O)(=O)NCc2ccccc2)c2c(C)ccc(C(C)C)cc1-2 [4j, N-benzyl-3,8-dimethyl-5-isopropyl-1-azulene sulfonamide]
[1]
  light, humidity and heat stability in words: better light, humidity and heat stability than azulene sulfonate sodium
other
  melting point: 124 to 126 °C
[3]
  Melting point Day 0: 124.0-126.0 °C
  Spot numbers on TLC Day 0: 1
  hygroscopic rate (%) Day 0: 1.24%
  Appearance Day 0: dark
  Melting point Day 5: 124.0-126.5 °C
  Spot numbers on TLC Day 5: 1
  hygroscopic rate (%) Day 5: 2.08%
  Appearance Day 5: dark
  Melting point Day 10: 124.5-126.5 °C
  Spot numbers on TLC Day 10: 1
  Appearance Day 10: blue
[4]
  Melting point Day 0: 124.0-125.5 °C
  Spot numbers on TLC Day 0: 1
  Appearance Day 0: dark blue
  Melting point Day 5: 123.5-125.5 °C
  Spot numbers on TLC Day 5: 1
  Appearance Day 5: dark
  Spot numbers on TLC Day 10: 2
  Appearance Day 10: blue
[5]
  Melting point Day 0: 124.0-125.5 °C
  Spot numbers on TLC Day 0: 1
  Melting point Day 5: 124.0-125.5 °C
  Spot numbers on TLC Day 5: 1
  Appearance Day 5: dark blue
  Melting point Day 10: 124.0-125.5 °C
  Spot numbers on TLC Day 10: 1
  Appearance Day 10: blue

## Cc1cc(S(=O)(=O)Nc2ccc(Cl)cc2)c2c(C)ccc(C(C)C)cc1-2 [4k, N-(4-chlorophenyl)-3,8-dimethyl-5-isopropyl-1-azulene sulfonamide]
[1]
  light, humidity and heat stability in words: better light, humidity and heat stability than azulene sulfonate sodium
other
  melting point: 134 to 135 °C
[3]
  Melting point Day 0: 134.5-135.0 °C
  Spot numbers on TLC Day 0: 1
  hygroscopic rate (%) Day 0: 1.17%
  Appearance Day 0: purple
  Melting point Day 5: 134.5-135.5 °C
  Spot numbers on TLC Day 5: 1
  hygroscopic rate (%) Day 5: 1.87%
  Appearance Day 5: purple
  Melting point Day 10: 134.5-135.5 °C
  Spot numbers on TLC Day 10: 1
  Appearance Day 10: purple
[4]
  Melting point Day 0: 134.5-135.0 °C
  Spot numbers on TLC Day 0: 1
  Appearance Day 0: purple
  Melting point Day 5: 134.0-135.5 °C
  Spot numbers on TLC Day 5: 1
  Appearance Day 5: purple
  Melting point Day 10: 134.0-135.5 °C
  Spot numbers on TLC Day 10: 1
  Appearance Day 10: purple
[5]
  Melting point Day 0: 134.5-135.0 °C
  Spot numbers on TLC Day 0: 1
  Melting point Day 5: 134.0-135.5 °C
  Spot numbers on TLC Day 5: 1
  Appearance Day 5: purple
  Melting point Day 10: 134.0-135.5 °C
  Spot numbers on TLC Day 10: 1
  Appearance Day 10: purple

Source: US9376382B2, “N-substituted isopropyldimethyl azulene sulfonamide derivatives, and preparation method and use thereof” (Sichuan Guokang Pharmaceutical Co., Ltd., priority 2011, dated 2016)
